The target of the assay is Kir6.2/SUR2A KATP channel (mKir6.2 + rSUR2A) (Rattus norvegicus, UniProt Q61743+Q63563). Kind of assay: inside-out excised patch clamp, Hill fit. The class given is biochemical.
Chain of Kir6.2/SUR2A KATP channel (mKir6.2 + rSUR2A) (Q63563 whole entry): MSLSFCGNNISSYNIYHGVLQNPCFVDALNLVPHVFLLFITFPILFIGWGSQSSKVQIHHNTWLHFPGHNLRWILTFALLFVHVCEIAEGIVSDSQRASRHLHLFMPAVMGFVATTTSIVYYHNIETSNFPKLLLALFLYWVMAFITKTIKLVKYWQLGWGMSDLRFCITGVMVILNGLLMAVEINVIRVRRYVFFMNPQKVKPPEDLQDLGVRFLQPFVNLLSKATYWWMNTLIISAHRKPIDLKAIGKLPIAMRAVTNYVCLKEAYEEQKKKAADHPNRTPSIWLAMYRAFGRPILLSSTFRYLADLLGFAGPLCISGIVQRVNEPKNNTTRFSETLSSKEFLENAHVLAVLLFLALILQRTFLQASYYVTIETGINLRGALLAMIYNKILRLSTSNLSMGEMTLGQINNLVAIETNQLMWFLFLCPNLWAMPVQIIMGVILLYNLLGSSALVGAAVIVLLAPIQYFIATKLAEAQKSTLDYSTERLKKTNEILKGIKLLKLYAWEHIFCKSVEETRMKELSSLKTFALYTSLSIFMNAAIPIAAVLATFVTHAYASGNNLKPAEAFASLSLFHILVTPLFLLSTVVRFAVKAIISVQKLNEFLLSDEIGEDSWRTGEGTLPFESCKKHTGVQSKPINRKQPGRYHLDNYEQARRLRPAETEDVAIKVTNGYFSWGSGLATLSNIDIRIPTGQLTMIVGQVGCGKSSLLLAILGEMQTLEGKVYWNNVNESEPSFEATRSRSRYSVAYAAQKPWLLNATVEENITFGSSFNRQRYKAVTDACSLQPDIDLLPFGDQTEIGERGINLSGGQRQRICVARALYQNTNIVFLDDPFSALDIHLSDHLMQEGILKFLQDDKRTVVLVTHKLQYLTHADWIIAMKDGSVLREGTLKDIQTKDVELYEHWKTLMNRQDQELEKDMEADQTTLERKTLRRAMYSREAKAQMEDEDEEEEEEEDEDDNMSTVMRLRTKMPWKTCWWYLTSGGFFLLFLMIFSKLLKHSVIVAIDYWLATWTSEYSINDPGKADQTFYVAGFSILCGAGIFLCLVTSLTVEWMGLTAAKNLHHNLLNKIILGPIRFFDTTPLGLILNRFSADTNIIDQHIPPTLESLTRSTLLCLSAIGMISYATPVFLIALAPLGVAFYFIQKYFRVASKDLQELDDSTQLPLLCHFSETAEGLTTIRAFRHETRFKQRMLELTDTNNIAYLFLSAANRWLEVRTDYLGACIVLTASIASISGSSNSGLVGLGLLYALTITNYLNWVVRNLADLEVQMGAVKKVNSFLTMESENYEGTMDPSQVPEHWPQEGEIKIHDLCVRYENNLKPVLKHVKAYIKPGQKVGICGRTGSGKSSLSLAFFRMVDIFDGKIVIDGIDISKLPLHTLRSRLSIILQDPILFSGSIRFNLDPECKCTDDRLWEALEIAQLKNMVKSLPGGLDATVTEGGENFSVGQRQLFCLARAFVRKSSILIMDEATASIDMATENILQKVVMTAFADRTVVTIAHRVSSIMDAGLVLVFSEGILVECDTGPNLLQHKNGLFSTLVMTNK
Chain of Kir6.2/SUR2A KATP channel (mKir6.2 + rSUR2A) (Q61743 whole entry): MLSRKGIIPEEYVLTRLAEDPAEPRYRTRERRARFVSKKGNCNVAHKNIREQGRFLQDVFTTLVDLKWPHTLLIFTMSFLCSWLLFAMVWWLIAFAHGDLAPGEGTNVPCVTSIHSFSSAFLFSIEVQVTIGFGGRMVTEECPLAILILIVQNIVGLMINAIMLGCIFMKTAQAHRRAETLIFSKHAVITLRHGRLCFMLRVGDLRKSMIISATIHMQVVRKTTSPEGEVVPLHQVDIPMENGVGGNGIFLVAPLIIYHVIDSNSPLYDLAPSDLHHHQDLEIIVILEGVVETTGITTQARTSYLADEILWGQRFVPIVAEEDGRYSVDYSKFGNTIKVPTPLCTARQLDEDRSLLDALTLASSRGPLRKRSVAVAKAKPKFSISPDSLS

Regarding `Nc1ncnc2c1ncn2[C@@H]1O[C@H](COP(=O)(O)OP(=O)(O)OP(=O)(O)O)[C@@H](O)[C@H]1O` [ATP], the IC50 worked out at 14.4 ± 2.3 µM.

In the case of `COc1ccc(Cl)cc1C(=O)NCCc1ccc(S(=O)(=O)NC(=O)NC2CCCCC2)cc1` [glibenclamide], the IC50 was 0.0195 ± 0.0061 µM.

In general, IC50 refers to the concentration needed to halve the response being measured.

These data come from doi:10.1101/209783v1 (biorxiv, 2017).
